The subject of the assay is peripheral blood mononuclear cells (PBMC) / autologous TTCF specific T cell clones. Briefly: TTCF antigen presentation by PBMC, read out as proliferation of autologous T cell clones. In kind it is cell-based, human. The method, then:
The invention will now be described by reference to the following Examples and Figures wherein • Figure 1: Processing of TTCF by a leupeptin-insensitive cysteine endopeptidase activity. (a) TTCF was digested in vitro in the presence of disrupted lysosomes (1-2 µg) in the presence or absence of iodoacetamide (1 mM), leupeptin, E64 or pepstatin (each at 0.1 mg/ml). Digestions were in 0.1 M NH4 acetate at pH 4.5 or Na2HPO4, pH 6.0 or 7.0. After 4 hours at 37°C, the reactions were separated by Tris-tricine SDS-PAGE and stained with Coomassie Blue. (b) Cleavage sites: TTCF digestion products were separated by SDS PAGE and electrophoretically transferred to nitrocellulose membrane. Individual fragments numbered 1-6 were subjected to 5 cycles of Edman degradation. N-terminal sequence obtained is shown in bold following upstream residues from TTCF (tetanus toxin numbering). The N-terminal sequence of His-tagged TTCF was obtained for fragments 1 and 3. (c) Residues Asn 1184 and Glu 1184 in TTCF were mutated to alanine (see Methods) and digestions performed as before. The mutation abolishes cleavage at the mutated site but not at the first site (doublet at 47 kD). In this experiment cleavage of the third site was minimal. • Figure 2: TTCF is processed by an asparaginyl endopeptidase. (a) Chromatography of the TTCF processing activity on Mono-S resin. Fractions eluted by NaCl gradient were incubated with the substrates Z-Ala-Ala-Asn-NHMec or Z-Phe-Arg-NHMec in the presence or absence of E64 (trans-epoxysuccinyl-L-leucylamido-(4-guanidino)butane). […] (b) Fractions as above were incubated with 10 µg TTCF in the presence or absence of E64 for 4 hours at 37°C prior to SDS-PAGE analysis. (c) Each fraction was analysed by SDS-PAGE and Western blotting. Electrophoretically transferred material was probed with an affinity purified antiserum raised against the peptide KGIGSGKVLKSGPQC from human legumain^1. • Figure 3: Peptide inhibitors of AEP block asparaginyl endopeptidase activity and TTCF processing in vitro and in vivo. (a) TTCF was digested with purified AEP (legumain from pig kidney) in the presence or absence of 0.2 mg/ml of the peptides indicated. […] (b) Purified AEP or a crude lysosomal protease mixture were incubated with Z-Ala-Ala-Asn-NHMec, Z-Phe-Arg-NHMec (cathepsins L&B) or Z-Val-Val-Ala NHMec (cathepsin S) in the presence of increasing concentrations of AENK or AEQK. Release of 7-amino-4-methyl coumarin was measured after 10, 20 or 30 minutes. […] At different times the cells were washed, fixed in 0.05 % glutaraldehyde and co-cultured with autologous TTCF specific T cell clones. […] Proteins obtained from commercial sources, as described in the literature or custom peptides were digested with purified pig kidney legumain at pH 5.5 in the presence of 1 mM DTT. […] When present peptide was maintained during antigen pulsing at 1 mg/ml (a) or 2 mg/ml (b). At different times the cells were washed, fixed in 0.05 % glutaraldehyde and antigen presentation measured using proliferation of different autologous TTCF-specific T cell clones. c, AEP pre-processing of TTCF speeds antigen presentation. […] Presentation was measured after 60 minutes of antigen pulsing using EBV B cells.
If AEP plays a role in TTCF processing in antigen presenting cells then sufficiently high levels of the competing AENK peptide might be expected to interfere with normal class II MHC loading of TTCF epitopes. Following a 15 minute preincubation with or without tetrapeptides, freshly isolated peripheral blood mononuclear cells (PBMC) were incubated with TTCF antigen in the continued presence or absence of the peptides. At different times, the cells were washed, fixed and then co-cultured with different autologous T cell clones to assess expression of different peptide/MHC complexes. […] At later times there was some recovery of presentation of these epitopes as expected for a competitive inhibitor. […]

The mark [1] stands for this setting: PBMC, 1 mg/ml peptide, 30 µg/ml TTCF, after 60 minutes of antigen pulsing.

Residues, ends and D or L forms follow the SMILES beside them. *: point of attachment. Fmoc = O=C(OCC1c2ccccc2-c2ccccc21)*

In the case of `C[C@H](NC(=O)OCC1c2ccccc2-c2ccccc21)C(=O)N[C@@H](CCC(=O)O)C(=O)N[C@@H](CC(N)=O)C(=O)N[C@@H](CCCCN)C(N)=O` [AENK, Ala-Glu-Asn-Lys-NH] (Fmoc-AENK-NH2), under setting [1], the “presentation to T cell clone AK 6” value is “profoundly inhibited”; the “presentation to T cell clones AK 20 and AK 90” value is “undetectable”. Moreover, the “presentation to other clones recognising other regions of TTCF (eg AK 111, 71 and 33)” value (PBMC, 1 mg/ml peptide, 30 µg/ml TTCF, Fig 3c) is given as “not affected”. The “presentation to most clones (eg AK 5, 90 & 6) at early times” value (PBMC, 1 mg/ml peptide, between 30 and 60 minutes of antigen pulsing, Fig 9a) was “undetactable”. Also, under “TTCF pre-digested in vitro by AEP, data not shown”, the “inhibitory effect on presentation when TTCF pre-digested in vitro by AEP is used” value was “could be overridden”.

Values taken from patent EP1066315B1 (University of Dundee, priority 1998, dated 2008).
